Laboratory results published in patent US20260014278A1, “HYBRID PEPTIDE DENDRIMER SYSTEMS AND EXTRAHEPATIC DELIVERY” (NUNTIUS THERAPEUTICS LIMITED, priority 2022, published 2026).

Tests used:
mouse macrophages = test: eGFP mRNA transfection of mouse macrophages with or without mannose-dendrimer coat; assay type: cell-based; settings: GSCG1,2-RHL nanoparticle NP=8:1, DOTMA/DOPE:mRNA w/w 10:1, coat 1:1 (1 eq) coating:mRNA; FIG. 6
Procedure: J774.2 cells were subcultured in DMEM supplemented with 2 mM glutamax and 10% heat-inactivated FBS (complete media). Twice a week (at about 70-80% confluency; every 3-4 days), cells were scrapped and collected into Falcon tubes, and pelleted at 400 g for 5 minutes. The cells were resuspended in complete media, counted and seeded into 10 cm dishes at a density of 1.7-2.5E+4 cells/cm^2. For M2 polarisation, the cells were treated with complete media supplemented with 20 ng/ml recombinant murine IL-4 and 20 ng/ml recombinant murine IL-13 (activation media) over a 48 hr period. After 24 hrs in IL-4 and IL-13 containing medium, the cells scrapped and collected as described above. The cells were seeded into 24-well plates at a density of 1.2E+5 cells/well in 0.5mls/well complete media containing 20 ng/ml IL-4 and IL-13.
The media overlaying the polarised J774.2 cells was aspirated and exchanged with 480 ul/well activation media. 120 ul/well of each test condition (total volume was 600 ul/well) was added (test conditions were prepared in 25 mM HEPES solution). Control conditions were prepared consisting of neat 25 mM HEPES and an mRNA control. Between addition of each test condition the plate was shaken back and forth to ensure mixing. The plate was placed into the incubator overnight.
Staining and fixation for both human and mouse-derived macrophages was carried out as follows. After 24 hrs the media overlaying each test condition was transferred to corresponding 1.5 ml Eppendorf tubes (in order to conserve cells that may have died during transfection). Cells were then washed with 300 ul/well PBS which was transferred to the corresponding tubes. 500 ul/well 5 mM EDTA was added to each well and the plate(s) transferred to the 37° C. incubator for 5-10 minutes until the cells started to detach. Cells were then transferred from the plate to the corresponding 1.5 ml tubes. Cells were pelleted down at 300 g for 5 minutes and resuspended in 100 ul/sample fixable Live/Dead Aqua stain. ArC beads were stained with 3 ul neat Live/Dead Aqua for compensation. These cells were stained on ice for 30 minutes. Following this, the tubes were spun down at 300 g for 5 minutes. The supernatant was discarded, and the cells were resuspended in 500 ul/sample PBS. Negative ArC beads were added to the compensation control. GFP compensation beads were dispensed into separate tube as the GFP compensation control. The samples were spun down at 300 g for 5 minutes. Samples were then resuspended in 100 ul/sample of Reagent A from the Invitrogen Fix/Perm kit and left at room temperature for 15 minutes. The samples were spun down at 400 g for 5 minutes and the supernatant was disposed. The samples were once again washed with PBS and spun down at 300 g for 5 minutes. The cells were finally resuspended in 400 ul/sample FACS buffer (PBS+2 mM EDTA+0.5% w/v BSA) for flow analysis. Samples were stored in the fridge prior to flow analysis and run within 24 hrs of fixation.
12 μl of a nanoparticle formulation was aliquoted into a sterile 0.5 ml polypropylene tube. 4 μl of a 0.3 mg/ml, 0.6 mg/ml or 1.8 mg/ml solution of (Ac-EEEE)2[…][(S-S)-α-D-Thiomannose] (for a mRNA:coating mass ratio of 1:0.5, 1:1 or 1:3, respectively) was mixed by rapidly pipetting up and down 10-15 times, and allowed to incubate for 5 minutes.
Macrophages, and in particular M2-phenotype macrophages, are known to have enriched surface expression of the receptor CD206, the ligand for which is mannose.

lung cells = settings: GSCG1,2-RL, 3-LR N:P=0.16:1, DOTMA:DOPE 10:1, coat 3 eq; 2.25 mg/kg IV, 4 hours; FIG. 13
Procedure: Six week old, female C57Bl/6 mice were supplied from Envigo UK. The mice were acclimatized in the animal facility for at least 7 days prior to use. […] The mice were randomised into 4 groups of n=3 when the tumours reached 0.15 cm3 (calliper measurements) and were dosed IV at 2.25 mg/kg or 3 mg/kg.
Four hours post dosing of the formulations, the animals were culled, and tissues were harvested. Terminal blood was collected in EDTA tubes and treated with Red Blood Cell Lysing Buffer HYBRI-MAX (Merck) prior to antibody staining. Spleens were dissociated by pushing through a 70 uM cell strainer using a syringe plunge. The cell suspension was then treated with Red Blood Cell Lysing Buffer HYBRI-MAX (Merck) prior to antibody staining. Lung and tumour samples were cut into small pieces and were enzymatically digested using the Lung and Tumor Dissociation Kit (mouse) and the gentleMACS™ Octo Dissociator with Heaters (Miltenyi) following the manufacturer's instructions.
The final cell suspensions were blocked with mouse Fc block prior to antibody staining. Cells were incubated with the antibody master mix at 4 C for 20 min and then they were fixed using 4% PFA for 30 min RT. They were analysed using the Attune NxT flow cytometer (Thermo Fisher) within 24 hours of fixing and data was analysed using the FlowJo_v10.8.1 software. Compensation was adjusted using the Attune compensation beads.

myeloid cells in tumour = test: In vivo uptake of Alexafluor488 tagged mRNA by cells in tumour of MC38 bearing mice; parameters: species or system C57Bl/6 mice; settings: GSCG1,2-RL, 3-LR N:P=0.16:1, DOTMA:DOPE 10:1, coat 3 eq; 2.25 mg/kg IV, 4 hours; FIG. 39
Description: Compensation was adjusted using the Attune compensation beads.

[1] = Dynamic light scattering: hydrodynamic size and polydispersity index (PDI) of nanoparticles; assay type: physicochemical; settings: peptide dendrimer, lipid and mRNA complexes; N:P 8:1, DOTMA/DOPE w/w 10:1 to mRNA
Procedure: (§1) The hydrodynamic size was measured using the dynamic light scattering (DLS) technique. DLS is a very sensitive, non-invasive method to measure size and size distribution of nanoparticles in a liquid. […] Analysing these intensity fluctuations allows us to calculate the velocity of the Brownian motion. The size of the nanoparticles can be determined by using the Stokes-Einstein relationship. With the latest technology, it can measure nanoparticles smaller than 1 nm.
PDI is used to estimate the average uniformity of a particle solution, The method of cumulants is a standard technique for analysing DLS data on sample polydispersity. PDI is a number calculated from a 2 parameter fit to the correlation data (the cumulants analysis). The cumulants analysis is used to evaluate the autocorrelation function generated by a DLS experiment. The calculation is defined in ISO 13321 and ISO 22412. PDI values greater than 0.7 indicate that the sample has a very broad size distribution and is not suitable for the DLS technique. The calculations for these parameters are defined in the ISO standard document 13321:1996 E and ISO 22412:2008.
as §1, with “Size, zeta potential and polydispersity index (PDI) measurement: The hydrodynamic” for “The hydrodynamic”, “scattering (DLS) technique using the Zetasizer Advance Series—Pro (Malvern Panalytical Ltd, Malvern, UK) according to the manufacturer's instructions. DLS is” for “scattering (DLS) technique. DLS is”
The data obtained with DLS measurements can also be used to calculate the PDI of particle in solution. PDI is used to estimate the average uniformity of a particle solution. The method of cumulants is a standard technique for analysing DLS data on sample polydispersity. PDI is a number calculated from a 2 parameter fit to the correlation data (the cumulants analysis). The cumulants analysis is used to evaluate the autocorrelation function generated by a DLS experiment. The calculation is defined in ISO 13321 and ISO 22412. PDI values greater than 0.7 indicate that the sample has a very broad size distribution and is not suitable for the DLS technique. The calculations for these parameters are defined in the ISO standard document 13321:1996 E and ISO 22412:2008.
To measure the size and PDI, the samples were diluted 16× in 25 mM HEPES buffer (5 μl sample+75 μl buffer). Parameters: reference material: polystyrene latex, dispersant: water, 25° C. The PDI measurements were measured in nanoparticles comprising a dendrimer:nucleic acid NP ratio of 8:1.

lung and spleen = test: Luciferase mRNA expression in mouse tissues after intravenous administration (bioluminescence); assay type: in vivo, Balb/c mice; settings: 6 hours, DOTMA/DOPE w/w=23:1 to mRNA, dendrimers NP=0.6:1, FIG. 11
Procedure: All animal procedures were conducted following the Animal Research Reporting of In Vivo Experiments and approved by the UK Home Office for the conduct of regulated procedures under license. For the data underlying FIG. 11, Balb/c mice aged 4 weeks were purchased from Jackon's Laboratory and left to acclimate in the new housing environment for 1-week upon their arrival. All mice were weighed and warmed for 15 min at 37 C in a heating chamber. The formulations were delivered intravenously (5 mL/kg) via the tail vein using 30 G insulin syringes (BD biosciences).
All mice were imaged 6 hours post injection. BLI was performed using an IVIS Lumina II (Perkin Elmer) imaging system. Mice were administered D-luciferin (GoldBio) at a dose of 10 uL/g. Mice were anaesthetised in a chamber with 2.5% isoflurane and then placed on a heated imaging platform while being maintained on 2.5% isoflurane. For the data underlying FIG. 11, mice were imaged 10 min post administration of D-luciferin with an exposure time set at 45 sec to ensure the signal acquired was within an effective detection range (binning medium). Bioluminescence signal was quantified by measuring photon flux (photons/s) using the Living Image software (Perkin Elmer). […] The organs were placed in the centre of imaging platform (Lumina II system) and signal was measured using the acquisition settings detailed above. […]

Substance | increase of transfection efficiency compared to a non-coated nanoparticle (mouse macrophages) [%] | uptake by CD206+ cells in the lung versus non-coated nanocarrier and LPX-mRNA (lung cells) | uptake in the lung cells versus non-coated nanocarrier and LPX-mRNA (lung cells) | uptake by CD206+ M2 macrophage cells in tumour versus non-coated nanocarrier and LPX-mRNA (myeloid cells in tumour) | Polydispersity Index (PDI) [1] | delivery of luciferase mRNA cargo to lung and spleen (bioluminescence) (lung and spleen)
(Ac-EEEE)2KGSGGSGGSC[(S-S)-α-D-Thiomannose] [Mannose-G1-EEEE] | ~10 | more effectively | higher uptake in the lung cells | more effectively | – | –
(LRLR)2KGSC-NH2 [GSCG1-LRLR] | – | – | – | – | 0.581 | further improved
